Laboratory results as given in patent US20090036437A1, “PHARMACEUTICAL COMPOSITION COMPRISING PHENOXAZINIUM COMPOUND AS AN ACTIVE INGREDIENT” (priority 2005, published 2009).
Marks after values point to notes of the source that are not given here.

Columns and labels:
[1] = mouse, in vivo, po
[2] = system: Plasmodium berghei NK65 strain; test: in vivo treatment test by oral administration into mouse infected with malaria; details: for Cure rate (%) / life-elongation effect: oral; for Cure rate (%): 5 days after infection
Description: This test was carried out in accordance with 4-day suppressive test that is a general in vivo test for the activity of an anti-malaria compound. Rodent malaria protozoa (Plasmodium berghei NK65 strain) were used in this test. Infected blood was prepared by infection with intraperitoneal administration into ICR male mouse (5 weeks age; SPF) and passage culture (subculture) thereafter. Blood was drawn from the vein of a tail of the moue infected with malaria, and its infection ratio was determined. After it was confirmed that the infection ratio had been increased up to an appropriated level (10˜20%), the blood infected with malaria was drawn from the heart of the mouse. The infection ratio and number (cells/mL) of erythrocytes were determined. An uninfected mouse (ICR male, 5 weeks age) was then infected with an injection of the infected erythrocytes so diluted with PBS as to comprise the protozoa of […] per dose (0.2 mL) into the vein of its tail.
A test sample was prepared by dissolving the test compounds according to the present invention into physiologic saline (Otsuka Pharmaceuticals Industries) to a predetermined concentration. In the case where the compound was insoluble in water, it was dissolved into DMSO or Tween 20 to prepare the test sample. A control group (no drug-administration group) was treated only with physiologic saline. Weight of the mouse was determined so that a dose would comprise 5.0 mg per 1 kg of its weight.
One group consisted of five mice. The intraperitoneal administration of the test sample started after two hours from the infection with malaria and continued for successive 4 days with a 24-hour interval. After 24 hours from the last administration, blood was drawn from the tail of the infected mouse to prepare a thin-layer smear, and the number of the erythrocytes infected with the malaria protozoa under a microscope with respect to the control group and the test sample groups. Parasitemia, i.e., the infection ratio with the malaria protozoa, was obtained by calculating an average value of the medium three mice except the two mice showing a maximum or minimum inhibition level. A cure rate (suppression) was then calculated from the resulting parasitemia in accordance with the following equation.
Cure rate: suppression (%)=(b−a)/b×100 • a: Infection ratio of the test sample group; and • b: Infection ratio of the control group.
The cure rate (%) of the mice after 5 days from the infection with malaria and the treatment with A-1 (60% purity) according to Example 5 (25-100 mg/kg/day, through the oral administration) were shown in TABLE 6. The oral administration, starting after two hours from the infection with malaria, consisted of four times with a 24-hour interval, 12 times with 8-hour interval or single dose.
The cure rate (%) of the mice after 5 days from the infection with malaria and the treatment with A-1 (100 mg/kg/day, through the oral administration of four times with a 24-hour interval or singe dose) were shown in TABLE 7.

[3] = in vitro growth-inhibiting assay of rat L6 cells; assay type: cell-based; details: rat, L6 cells (rat skeletal myoblast cells); Table 3; 72 h, Alamar Blue; read-out: 50% growth-inhibiting concentration (nM) cytotoxicity L6

Q: For CCN(CC)c1ccc2nc3ccc(=[N+](CC)CC)cc-3oc2c1.[Cl-] [A-1 (60% purity)], which “reduction in weight or change of the conditions of mice attributed to side effects” value [1] is on record?
A: No reduction in weight or change of the conditions of mice

Q: And the “mice still alive after 30 days” value ([2]; oral 100 mg/kg four times with a 24-hour interval, one mouse died on day 21)?
A: three mice of the four mice

Q: What about the “presence of the protozoa of malaria in blood of surviving mice after 36 days” value ([2]; oral 100 mg/kg four times with a 24-hour interval, three surviving mice) of the same compound?
A: No protozoa of malaria was shown to be present in the blood

Q: And the “Cure rate (%)” value ([2]; 12 times with 8-hour interval, 15 mg/kg/dose)?
A: >99.99%

Q: What about the life-elongation effect ([2]; all treatments of Table 6) of the same compound?
A: significant life-elongation effect

Q: What about the “Cure rate (%)” value ([2]; four times with a 24-hour interval, 25 mg/kg/dose) of the same compound?
A: 82.3%

Q: And the “Cure rate (%)” value ([2]; four times with a 24-hour interval, 50 mg/kg/dose)?
A: 98.6%

Q: What about the “Cure rate (%)” value ([2]; four times with a 24-hour interval, 90 mg/kg/dose) of the same compound?
A: >99.99%

Q: And the “Cure rate (%)” value ([2]; four times with a 24-hour interval, 100 mg/kg/dose, one of five mice died due to technical error)?
A: >99.99* %

Q: And the “Cure rate (%)” value ([2]; single administration, 100 mg/kg/dose)?
A: >99.99%

Q: Which EC50 at 72 h [3] does the source give for CC[N+](CC)=c1ccc2nc3ccc(N(C)C)cc3oc-2c1 [Compound A-4] here?
A: 4690 nM

Q: What does the source list for CCN(CC)c1ccc2nc3ccc(=[N+](CC)CC)cc-3oc2c1.[Cl-] [A-1 (>95% purity)]?
A: reduction in weight or change of the conditions of mice attributed to side effects [1]: No reduction in weight or change of the conditions of mice; Cure rate (%) ([2]; Table 7, four times with 24-hour interval, 100 mg/kg/dose): >99.99%; Cure rate (%) ([2]; Table 7, single administration, 100 mg/kg/dose): 78.3%; life-elongation effect ([2]; all treatments of Table 7): significant life-elongation effect
